Experimental findings from patent US20260317333A1, “Heteroaryl Compounds as Ligand Directed Degraders of IRAK4” (Celgene Corporation, priority 2023, published 2026) are described below.

Structures can show the parent of a compound that is named as a salt.

The IC50 is the concentration needed to halve the response being measured.

For assay [1], the target named is T1, IRAK4 (Homo sapiens, UniProt Q9NWZ3).
T1 sequence (Q9NWZ3 1-460): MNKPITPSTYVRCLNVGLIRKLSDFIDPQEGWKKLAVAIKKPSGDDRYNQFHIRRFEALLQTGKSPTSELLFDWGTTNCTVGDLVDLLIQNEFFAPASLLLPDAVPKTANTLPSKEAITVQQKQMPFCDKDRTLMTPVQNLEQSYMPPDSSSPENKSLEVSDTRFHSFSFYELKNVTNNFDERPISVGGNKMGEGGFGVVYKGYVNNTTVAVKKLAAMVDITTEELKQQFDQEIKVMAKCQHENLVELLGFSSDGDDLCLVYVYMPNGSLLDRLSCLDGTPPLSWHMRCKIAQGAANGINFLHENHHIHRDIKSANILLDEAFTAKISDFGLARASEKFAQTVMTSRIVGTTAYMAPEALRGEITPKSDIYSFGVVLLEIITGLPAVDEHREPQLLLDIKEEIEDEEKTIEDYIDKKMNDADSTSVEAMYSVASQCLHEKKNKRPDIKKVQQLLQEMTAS
Description: IRAK4 PhosphoSens Biochemical Assay (BIOCHEM). Particulars: 200 μM ATP; 10 μM peptide substrate AQT0326; 1 nM IRAK4; room temperature; 240 minutes. The method, then:
The PhosphoSens® biochemical assay was performed as described by the vendor (AssayQuant Technologies Inc. Marlborough, MA). A 1.25× stock solution of IRAK4 (PV4002, ThermoFisher Scientific, Waltham, MA) and a 5× stock solution of ATP and Sox conjugated peptide substrate, AQT0326 (CSKS-AQT0326B, AssayQuant Technologies), were prepared in 1× kinase reaction buffer consisting of 50 mM HEPES, pH 7.5, 0.01% Brij-35, 0.5 mM EGTA, 20 mM MgCl2 and 1 mM DTT. 10 μL of the ATP and substrate solution mix, for a final concentration of 200 μM ATP and 10 μM peptide substrate, was added to a Corning 3574 384-well, white, non-binding surface microtiter plate containing 0.5 μL of serially diluted test compounds prepared in DMSO. The reactions were started with the addition of 40 μL of the enzyme solution, for a final IRAK4 concentration of 1 nM, and monitored every 71 seconds for 240 minutes at λEX 360/λEM 485 in a BioTek Synergy H4 plate reader (Agilent Technologies, Santa Clara, CA) at room temperature. The initial linear portions of the progress curves were fit according to a linear equation to yield the slopes and converted to % inhibition based on a value of 100% activity for the no inhibitor treated control. IC50 values of each compound were obtained by fitting the % inhibition-compound concentration curves using Dotmatics software (Dotmatics, Bishops Stortford, Hertfordshire, England).

Assay [2] addresses T1, IRAK4. As to the kind of experiment: ALE THP1 HTRF (IRAK4 degradation in THP1 cells, HTRF with anti-IRAK4 antibodies). It is filed as cell-based. Details: THP1 Homogeneous Time Resolved Fluorescence (ALE THP1 HTRF) Procedure; endogenous in cells; host or cells: THP1. The note with it: THP1 cell lysate. The method, then: Cell culture media was prepared in a tissue culture hood in a sterile environment by adding 10% FBS and 1% Penicillin Streptomycin to 500 mL no phenol red RPMI 1640 media. The media was filtered through a Nalgene Bottle Top Filter and stored at 4° C.
For Homogenous Time Resolved Fluorescence (HTRF) assays, a Cisbio HTRF kit was used, which included: Lysis Buffer #1 4×, Blocking Reagent #3 100×, 20× Antibody 1 (Anti-IRAK4 d2), 20× Antibody 2 (Anti-IRAK4 k), and Detection Buffer.
4× Lysis Buffer was stored at 4° C. For use as 1× Lysis buffer, the 4× solution was diluted with de-ionized water (distilled water, Gibco Cat. #15230279) and 100× Blocking Reagent in a 1:3:0.04 volume ratio.
20× Antibody Solution aliquots were stored at −80° C. and the Detection Buffer was stored at 4° C. For use as a 1× Antibody Solution, the 20× Antibody Solution aliquot was diluted with Detection Buffer in a 1:19 volume ratio.
Cells were lysed at room temperature for 45 min with shaking. A BCA protein assay was performed and normalization was conducted to the desired total protein concentration with 1× lysis buffer. Next, 1× Antibody Solutions were prepared by adding 380 μL Detection Buffer to 20 μL 20× Antibody Solution aliquots and mixing well. 1× Antibody Solutions were combined 1:1 and briefly vortexed. For control wells, 20 μL 1× anti IRAK4-k Antibody Solution was saved. The 384-well plate (ProxiPlate-384 Plus, Perkin Elmer Cat. #6008289) was loaded by adding 4 μL of the mixed Antibody Solution to empty wells using a single channel repeater. Using a multi-channel repeater, 16 μL lysate was added per well, and any bubbles that were formed were popped with 20 μL pipette tips and Kimwipe edges. In column 10, triplicates of each control were prepared. In wells A10, B10, and C10, buffer control was prepared by adding 16 μL Lysis Buffer and 4 μL Detection Buffer. In wells D10, E10, and F10, cryptate control was prepared by adding 16 μL Lysis Buffer, 2 μL Detection Buffer, and 2 μL 1× anti-IRAK4-k Antibody Solution. In wells G10, H10, and I10, a negative control was prepared by adding 16 μL Lysis Buffer and 4 μL mixed Antibody Solution. The plate was sealed with a clear seal and covered with an aluminum lid. The plate was spun down at 800 g for 5 min and incubated in the dark at room temperature overnight. The next day, the plate was spun down at 800 g for 5 min. The samples were analyzed by a plate reader (Envision, PerkinElmer) using the Desnor 384 HTRF program.
Background: Time-resolved FRET reads energy transfer from a long-lived donor to a nearby acceptor.

For the compound `N[C@@H]1C[C@@H](F)CN(c2ccn3ncc(C(=O)Nc4cn([C@H]5CC[C@H](CCN6CCN(c7ccc(C8CCC(=O)NC8=O)cc7)CC6)CC5)nc4C(F)(F)F)c3n2)C1` (stereo partly drawn) [Compound P-11, 5-((3R,5R)-3-Amino-5-fluoropiperidin-1-yl)-N-(1-((1r,4r)-4-(2-(4-(4-(2,6-dioxopiperidin-3-yl)phenyl)piperazin-1-yl)ethyl)cyclohexyl)-3-(trifluoromethyl)-1H-pyrazol-4-yl) pyrazolo[1,5-a]pyrimidine-3-carboxamide hydrochloride], the IC50 in assay [1] worked out at 0.4 nM. Also, in assay [2] (YMIN), the “ALE THP1 HTRF YMIN” value stood at 19%. Also, the DC50 in assay [2] (read-out: ALE THP1 HTRF EC50) was 15 nM.
